Experimental data taken from patent US20240122180A1, “FUNGICIDAL HALOMETHYL KETONES AND HYDRATES AND THEIR MIXTURES” (FMC Corporation, priority 2020, published 2024).

Tests used:
[1] = tested on: Puccinia recondita f. sp. tritici (the causal agent of wheat leaf rust); assay: Test B: preventive spray on wheat seedlings, disease rating (100 = 100% control; * 50 ppm, ** 10 ppm, *** 250 ppm); assay type: in vivo; conditions: 100 = 100% disease control; for pest or weed control at 10 ppm / pest or weed control at 50 ppm: Puccinia recondita
Source text: (§1) General protocol for preparing test suspensions for Tests A-E: the test compounds were first dissolved in acetone in an amount equal to 3% of the final volume and then suspended at the desired concentration (in ppm) in acetone and purified water (50/50 mix by volume) containing 250 ppm of the surfactant […] (polyhydric alcohol esters). The resulting test suspensions were then used in Tests A-E.
(§2) The test solution was sprayed to the point of run-off on wheat seedlings. The following day the seedlings were inoculated with a spore suspension of Puccinia recondita f. sp. tritici (the causal agent of wheat leaf rust) and incubated in a saturated atmosphere at 20° C. for 24 h, and then moved to a growth chamber at 20° C. for 6 days, after which time disease ratings were made.
(§3) Results for Tests A-E are given in Table A. In the Table, a rating of 100 indicates 100% disease control and a rating of 0 indicates no disease control (relative to the controls). An asterisk “*” or a double asterisk “**” or a triple asterisk “***” next to the rating value indicates a 50 ppm, 10 ppm and 250 ppm test suspension was used, respectively. A dash (-) indicates the compound was not tested.

[2] = tested on: Phakopsora pachyrhizi (the causal agent of Asian soybean rust); assay: Test A: preventive spray on soybean seedlings, visual disease rating (100 = 100% control; * 50 ppm, ** 10 ppm, *** 250 ppm); assay type: in vivo; conditions: 100 = 100% disease control
Source text: as §1
as §2, with “soybean” for “wheat”, “Phakopsora pachyrhizi” for “Puccinia recondita f. sp. tritici”, “Asian soybean” for “wheat leaf”, “22°” for “20°”, “8” for “6”, “time visual” for “time”
as §3

[3] = 10 ppm test suspension, 0 = no control
[4] = 10 ppm test suspension, wheat seedlings
[5] = 10 ppm test suspension, soybean seedlings
[6] = 50 ppm test suspension, 0 = no control
[7] = 50 ppm test suspension, wheat seedlings

SMILES: CCOC(=COc1ccc(CN2CCC(C(=O)OC)CC2)cc1)C(F)(F)F [compound 309]
- Test B disease control rating [1, 3]: 0%
- Test A disease control rating [2, 3]: 100%

SMILES: CCO/C(=C\Oc1cccc(Cn2cc(C(=O)OCC3CC3)cn2)c1)C(F)(F)F [compound 341]
- Test B disease control rating [1, 3]: 0%
- Test A disease control rating [2, 3]: 100%

SMILES: C=CCOC(=O)c1cnn(Cc2cccc(O/C=C(\OCC)C(F)(F)F)c2)c1 [compound 333]
- Test B disease control rating [1, 3]: 0%
- Test A disease control rating [2, 3]: 100%

SMILES: CCOC(=O)c1cn(Cc2ccc(O/C=C(\OCC)C(F)(F)F)cc2)nn1 [compound 121]
- Test B disease control rating [1, 4]: 0%
- Test A disease control rating [2, 5]: 100%

SMILES: O=C(NCC(F)(F)F)c1cnn(Cc2ccc(OCC3(C(F)(F)F)OCCO3)cc2)c1 [compound 197]
- Test B disease control rating [1, 4]: 0%
- Test A disease control rating [2, 5]: 0%

SMILES: CCO/C(=C\Oc1ccc(Cn2ccc(C(=O)OCC3CCC3)n2)cc1)C(F)(F)F [compound 361]
- Test B disease control rating [1, 3]: 0%
- Test A disease control rating [2, 3]: 100%

SMILES: COC(=O)COC(=O)c1cnn(Cc2ccc(OCC3(C(F)(F)F)OCCO3)cc2)c1 [compound 203]
- Test B disease control rating [1, 4]: 0%
- Test A disease control rating [2, 5]: 50%

SMILES: O=C(OCC1CC1)c1cnn(Cc2ccc(OCC3(C(F)(F)F)OCCO3)cc2)c1 [Compound 127, cyclopropylmethyl 1-[[4-[[2-(trifluoromethyl)-1,3-dioxolan-2-yl]methoxy]phenyl]methyl]-1H-pyrazole-4-carboxylate]
- pest or weed control at 10 ppm [1, 4]: 0%

SMILES: CCO/C(=C\Oc1ccc(Cn2cncc2C(=O)OC)cc1)C(F)(F)F [compound 85]
- Test B disease control rating [1, 4]: 0%
- Test A disease control rating [2, 5]: 89%

SMILES: N#CCc1ccc(OCC2(C(F)(F)F)OCCO2)cc1 [compound 239]
- Test B disease control rating [1, 4]: 0%
- Test A disease control rating [2, 5]: 0%

SMILES: CCO/C(=C\Oc1cccc(Cc2nc(C(=O)NCC(F)F)cs2)c1)C(F)(F)F [compound 398]
- pest or weed control at 10 ppm [1, 3]: 0%
- pest or weed control at 10 ppm ([2]; Phakopsora pachyrhizi, 10 ppm test suspension, 0 = no control): 0%

SMILES: CN(C)S(=O)(=O)c1ccc(OCC(O)(O)C(F)(F)F)cc1 [compound 34]
- Test B disease control rating [1, 4]: 80%
- Test A disease control rating [2, 5]: 0%

SMILES: CCOCc1cnn(Cc2ccc(OCC3(C(F)(F)F)OCCO3)cc2)c1 [compound 240]
- Test B disease control rating [1, 4]: 0%
- Test A disease control rating [2, 5]: 99%

SMILES: CCOC(=O)c1cnn(Cc2ccc(O/C=C(\OCC)C(F)(F)F)cc2)c1 [compound 298]
- Test B disease control rating [1, 3]: 0%
- Test A disease control rating [2, 3]: 0%

SMILES: CCOC(=O)c1cnn(Cc2ccc(OCC3(C(F)(F)F)OCC(C)(C)O3)cc2)c1 (centres unmarked) [Compound 12, ethyl 1-[[4-[[4,4-dimethyl-2-(trifluoromethyl)-1,3-dioxolan-2-yl]methoxy]-phenyl]methyl]-1H-pyrazole-4-carboxylate]
- pest or weed control at 10 ppm [1, 4]: 0%

SMILES: CCO/C(=C\Oc1ccc(C(=O)NC2CC2)cc1)C(F)(F)F [compound 100]
- Test B disease control rating [1, 4]: 0%
- Test A disease control rating [2, 5]: 0%

SMILES: CCO/C(=C\Oc1ccc(Cn2ccc(C(=O)OC(C)C)n2)cc1)C(F)(F)F [compound 327]
- Test B disease control rating [1, 3]: 0%
- Test A disease control rating [2, 3]: 100%

SMILES: CCO/C(=C\Oc1ccc(Cn2cnc(C(=O)OC)n2)cc1)C(F)(F)F [compound 123]
- Test B disease control rating [1, 4]: 0%
- Test A disease control rating [2, 5]: 98%

SMILES: CCOC(=O)c1cnn(Cc2ccc(OC)c(O/C=C(\OCC)C(F)(F)F)c2)c1 [compound 408]
- Test B disease control rating [1, 6]: 0%
- Test A disease control rating [2, 6]: 44%

SMILES: CC(C)COC(=O)c1cnn(Cc2ccc(OCC3(C(F)(F)F)OCCO3)cc2)c1 [Compound 126, 2-methylpropyl 1-[[4-[[2-(trifluoromethyl)-1,3-dioxolan-2-yl]methoxy]phenyl]methyl]-1H-pyrazole-4-carboxylate]
- pest or weed control at 10 ppm [1, 4]: 0%

SMILES: CCOC(=O)c1cnn(Cc2cccc(OCC3(C(F)(F)F)OCCO3)c2)c1 [compound 146]
- pest or weed control at 50 ppm [1, 7]: 0%

SMILES: CCOC(=O)c1cnn(COCc2ccc(O/C=C(\OCC)C(F)(F)F)cc2)c1 [Compound 297, ethyl 1-[[4-[[(1Z)-2-ethoxy-3,3,3-trifluoro-1-propen-1-yl]oxy]phenylmethoxy]methyl]-1H-pyrazole-4-carboxylate]
- pest or weed control at 10 ppm [1, 3]: 0%

SMILES: N#Cc1cccc(OCC2(C(F)(F)F)OCCO2)c1 [compound 147]
- pest or weed control at 50 ppm [1, 7]: 0%

SMILES: CCOC(=O)c1ccn(Cc2ccc(O/C=C(\OCC)C(F)(F)F)cc2)n1 [Compound 231, ethyl 1-[[4-[[(1Z)-2-ethoxy-3,3,3-trifluoro-1-propen-1-yl]oxy]phenyl]methyl]-1H-pyrazole-3-carboxylate]
- pest or weed control at 10 ppm [1, 4]: 0%

SMILES: CCO/C(=C\Oc1cccc(Cn2cc(C(=O)OC)cn2)c1)C(F)(F)F [Compound 330, methyl 1-[[3-[[(1Z)-2-ethoxy-3,3,3-trifluoro-1-propen-1-yl]oxy]phenyl]methyl]-1H-pyrazole-4-carboxylate]
- pest or weed control at 10 ppm [1, 3]: 0%

SMILES: O=Cc1cccc(OCC(O)(O)C(F)(F)F)c1 [compound 305]
- pest or weed control at 10 ppm [1, 3]: 0%

SMILES: CCOC(=O)c1cnn(Cc2ccc(O/C=C(\OCC)C(F)(F)F)c(F)c2)c1 [Compound 262, ethyl 1-[[4-[[(1Z)-2-ethoxy-3,3,3-trifluoro-1-propen-1-yl]oxy]-3-fluorophenyl]methyl]-1H-pyrazole-4-carboxylate]
- pest or weed control at 10 ppm [1, 3]: 0%

SMILES: CCOC(=O)c1cnn(Cc2cccc(OCC(O)(O)C(F)(F)F)c2)c1 [Compound 266, ethyl 1-[[3-(3,3,3-trifluoro-2,2-dihydroxypropoxy)phenyl]methyl]-1H-pyrazole-4-carboxylate]
- pest or weed control at 50 ppm [1, 6]: 74%

SMILES: CC#CCOC(=O)c1cnn(Cc2ccc(OCC3(C(F)(F)F)OCCO3)cc2)c1 [Compound 163, 2-butyn-1-yl 1-[[4-[[2-(trifluoromethyl)-1,3-dioxolan-2-yl]methoxy]phenyl]methyl]-1H-pyrazole-4-carboxylate]
- pest or weed control at 10 ppm [1, 4]: 0%

SMILES: CCOC(=O)c1cnn(CCc2ccc(O/C=C(\OCC)C(F)(F)F)cc2)c1 [Compound 132, ethyl 1-[2-[4-[[(1Z)-2-ethoxy-3,3,3-trifluoro-1-propen-1-yl]oxy]phenyl]ethyl]-1H-pyrazole-4-carboxylate]
- pest or weed control at 10 ppm [1, 4]: 0%

SMILES: O=[N+]([O-])c1cccc(OCC2(C(F)(F)F)OCCO2)c1 [compound 165]
- pest or weed control at 10 ppm [1, 4]: 0%

SMILES: CCCOC(=O)c1cnn(Cc2cccc(O/C=C(\OCC)C(F)(F)F)c2)c1 [Compound 331, propyl 1-[[3-[[(1Z)-2-ethoxy-3,3,3-trifluoro-1-propen-1-yl]oxy]phenyl]methyl]-1H-pyrazole-4-carboxylate]
- pest or weed control at 10 ppm [1, 3]: 0%

SMILES: CCO/C(=C\Oc1cccc(Cn2cc(C(=O)NC3CCCC3)cn2)c1)C(F)(F)F [compound 390]
- Test A disease control rating [2, 6]: 0%

SMILES: COCCOC(=O)c1cnn(Cc2ccc(OCC3(C(F)(F)F)OCCO3)cc2)c1 [Compound 162, 2-methoxyethyl 1-[[4-[[2-(trifluoromethyl)-1,3-dioxolan-2-yl]methoxy]phenyl]methyl]-1H-pyrazole-4-carboxylate]
- pest or weed control at 10 ppm [1, 4]: 0%

SMILES: N#CCCCOC(=O)c1cnn(Cc2ccc(OCC3(C(F)(F)F)OCCO3)cc2)c1 [Compound 171, 3-cyanopropyl 1-[[4-[[2-(trifluoromethyl)-1,3-dioxolan-2-yl]methoxy]phenyl]methyl]-1H-pyrazole-4-carboxylate]
- pest or weed control at 10 ppm [1, 4]: 0%

SMILES: CCO/C(=C\Oc1cccc(Cn2cc(C(=O)NC3CC3)cn2)c1)C(F)(F)F [compound 391]
- Test A disease control rating [2, 6]: 0%
